Measured values as given in PubChem BioAssay (NCI).
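The compound was tested at five concentrations on cells cultured in 96-well plates, with a 48-hour exposure period. Here, GI50 denotes the concentration required for 50% inhibition of growth. TGI marks complete inhibition of growth.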

How the values were obtained:
Assay in all cases: DTP human tumour cell line panel, 48 h
[1] = test system: EKVX NSCLC
[2] = test system: OVCAR-3 ovarian
[3] = test system: MOLT-4 leukemia
[4] = test system: UACC-257 melanoma
[5] = test system: RPMI-8226 leukemia
[6] = test system: SW-620 colon
[7] = test system: RXF 393 renal
[8] = test system: UACC-62 melanoma
[9] = test system: K-562 leukemia
[10] = test system: SN12C renal
[11] = test system: HOP-62 NSCLC
[12] = test system: T-47D breast
[13] = test system: NCI-H226 lung
[14] = test system: PC-3 prostate
[15] = test system: BT-549 breast
[16] = test system: HOP-92 NSCLC

CC(NC(C)(C)C)C(=O)c1cccc(Cl)c1 (stereo not given)
TGI [1]: > 100 µM
TGI [2]: > 100 µM
TGI [3]: > 100 µM
TGI [4]: > 100 µM
TGI [5]: > 100 µM
TGI [6]: > 100 µM
TGI [7]: > 100 µM
TGI [8]: > 100 µM
TGI [9]: > 100 µM
TGI [10]: > 100 µM
TGI [11]: > 100 µM

COc1cccc(N2C(=O)C3c4[nH]c5ccc(C)cc5c4C4CCC(C(C)(C)C)CC4C3C2=O)c1 (stereo not given)
TGI [1]: > 10 µM
TGI [2]: > 10 µM
TGI [12]: > 10 µM
TGI [3]: 5.04 µM
TGI [13]: 8.78 µM
TGI [5]: > 10 µM
TGI [6]: > 10 µM
TGI [7]: 9.94 µM
TGI [8]: > 10 µM
TGI [9]: 7.67 µM
TGI [14]: > 10 µM
TGI [10]: > 10 µM
TGI [11]: > 10 µM

CC(C)=C/C=C1/CS(=O)(=O)C=C1C
TGI [1]: > 100 µM
TGI [2]: > 100 µM
TGI [12]: > 100 µM
TGI [3]: > 100 µM
TGI [4]: > 100 µM
TGI [13]: > 100 µM
TGI [5]: > 100 µM
TGI [6]: > 100 µM
TGI [7]: > 100 µM
TGI [8]: > 100 µM
TGI [9]: > 100 µM
TGI [14]: > 100 µM
TGI [10]: > 100 µM
TGI [11]: > 100 µM

CCC1(COC(NC(=O)c2ccccc2)(C(F)(F)F)C(F)(F)F)COC1
TGI [1]: > 100 µM
TGI [12]: > 100 µM
TGI [3]: > 100 µM
TGI [4]: > 100 µM
TGI [5]: > 100 µM
TGI [6]: > 100 µM
TGI [7]: > 100 µM
TGI [9]: > 100 µM
TGI [14]: > 100 µM
TGI [15]: > 100 µM
TGI [10]: > 100 µM

C=CCOC(=O)C1C2OC3(C(C(=O)OC)=C2C(=O)OC)c2ccccc2CCC13 (stereo not given)
TGI [1]: > 10 µM
TGI [2]: > 10 µM
TGI [12]: > 10 µM
TGI [3]: > 10 µM
TGI [4]: > 10 µM
TGI [13]: > 10 µM
TGI [5]: > 10 µM
TGI [6]: > 10 µM
TGI [7]: > 10 µM
TGI [8]: > 10 µM
TGI [9]: > 10 µM
TGI [14]: > 10 µM
TGI [15]: > 10 µM
TGI [10]: > 10 µM
TGI [11]: > 10 µM

O=C(Nc1cccc(F)c1)c1cc2ccc(O)cc2oc1=Nc1ccccc1F
TGI [1]: 6.17 µM
TGI [2]: 14.7 µM
TGI [12]: 12.1 µM
TGI [3]: 24.7 µM
TGI [4]: 31.1 µM
TGI [5]: > 100 µM
TGI [6]: 45.4 µM
TGI [8]: 24 µM
TGI [9]: > 100 µM
TGI [14]: 24.3 µM
TGI [15]: 8.61 µM
TGI [10]: 22.5 µM
TGI [11]: 24.6 µM

CC1=NN(C(=O)CSc2nc3ccc(I)cc3c(=O)n2Cc2ccccc2)C(=O)C1
TGI [1]: 79.8 µM
TGI [16]: 70.7 µM
TGI [2]: 54.9 µM
TGI [12]: 60.3 µM
TGI [3]: 67.8 µM
TGI [4]: 85.4 µM
TGI [13]: > 100 µM
TGI [5]: > 100 µM
TGI [6]: > 100 µM
TGI [7]: 66.2 µM
TGI [8]: > 100 µM
TGI [9]: 74.9 µM
TGI [14]: 49.7 µM
TGI [10]: > 100 µM
TGI [11]: > 100 µM

Nc1nc(Cl)c(N)c(NCC2(CO)CC(CCCc3ccccc3)C2)n1 (stereo not given)
TGI [1]: 10.1 µM
TGI [16]: > 100 µM
TGI [2]: > 67.2 µM
TGI [12]: > 100 µM
TGI [3]: > 100 µM
TGI [4]: > 100 µM
TGI [13]: > 63.7 µM
TGI [5]: > 50.1 µM
TGI [6]: > 100 µM
TGI [8]: > 100 µM
TGI [9]: > 100 µM
TGI [14]: > 91.5 µM
TGI [15]: > 81.8 µM
TGI [10]: > 100 µM
TGI [11]: > 100 µM

CCN(CC)CCNCc1cc(Cl)cc2c1OCOC2
TGI [1]: > 10 µM
TGI [2]: > 10 µM
TGI [12]: > 10 µM
TGI [3]: > 10 µM
TGI [13]: > 10 µM
TGI [5]: > 10 µM
TGI [6]: > 10 µM
TGI [7]: > 10 µM
TGI [8]: > 10 µM
TGI [9]: > 10 µM
TGI [14]: > 10 µM
TGI [10]: > 10 µM
TGI [11]: > 10 µM

CCOP(=O)(OCC)C(C)(CC)NC (stereo not given)
TGI [1]: > 100 µM
TGI [16]: > 100 µM
TGI [2]: > 100 µM
TGI [12]: > 100 µM
TGI [3]: > 100 µM
TGI [4]: > 100 µM
TGI [13]: > 100 µM
TGI [6]: > 100 µM
TGI [7]: > 100 µM
TGI [8]: > 100 µM
TGI [9]: > 100 µM
TGI [15]: > 100 µM
TGI [10]: > 100 µM
TGI [11]: > 100 µM

COC(=O)c1c(O)ccc2c1C1(Cc3ccccc3C1=O)C(O)O2 (stereo not given)
TGI [1]: 68.5 µM
TGI [16]: 60.2 µM
TGI [2]: 43.9 µM
TGI [12]: 45.3 µM
TGI [3]: 21.5 µM
TGI [4]: > 100 µM
TGI [13]: 35.5 µM
TGI [5]: 17.3 µM
TGI [6]: > 100 µM
TGI [7]: > 100 µM
TGI [9]: > 100 µM
TGI [14]: 92.2 µM
TGI [15]: 37 µM
TGI [10]: 86.2 µM
TGI [11]: 28.7 µM

O=C(O)CNC(=O)c1c2ccccc2nc2ccccc12
TGI [1]: > 100 µM
TGI [16]: > 100 µM
TGI [2]: > 100 µM
TGI [3]: > 100 µM
TGI [4]: > 100 µM
TGI [13]: > 100 µM
TGI [5]: > 100 µM
TGI [6]: > 100 µM
TGI [8]: > 100 µM
TGI [9]: > 100 µM
TGI [14]: > 100 µM
TGI [15]: > 100 µM
TGI [10]: > 100 µM
TGI [11]: > 100 µM

O[C@H]1[C@H](O)[C@@H](O)[C@@]2(O)C[C@@H](O)[C@@H]1N2
TGI [1]: > 100 µM
TGI [16]: > 100 µM
TGI [2]: > 100 µM
TGI [12]: > 100 µM
TGI [3]: > 100 µM
TGI [4]: > 100 µM
TGI [13]: > 100 µM
TGI [6]: > 100 µM
TGI [7]: > 100 µM
TGI [8]: > 100 µM
TGI [9]: > 100 µM
TGI [14]: > 100 µM
TGI [10]: > 100 µM
TGI [11]: > 100 µM

COc1ccc2c(c1)CCN1CCc3cc(OC)c(OC)cc3CC21 (stereo not given)
TGI [1]: > 10 µM
TGI [16]: > 100 µM
TGI [12]: > 100 µM
TGI [3]: > 100 µM
TGI [4]: > 100 µM
TGI [13]: > 100 µM
TGI [5]: > 100 µM
TGI [6]: > 100 µM
TGI [7]: > 100 µM
TGI [8]: > 100 µM
TGI [9]: > 100 µM
TGI [15]: 55.6 µM
TGI [10]: > 100 µM

O=C(N/N=C/c1cc(Cl)cc(Cl)c1O)c1ccccc1O
GI50 [1]: 1.71 µM
TGI [1]: > 100 µM
GI50 [16]: 3.69 µM
TGI [16]: 19.7 µM
TGI [2]: 1.65 µM
GI50 [3]: 0.375 µM
TGI [3]: > 100 µM
TGI [4]: 14.6 µM
TGI [6]: 21.5 µM
TGI [7]: 4.97 µM
TGI [8]: 3.89 µM
TGI [9]: > 100 µM
TGI [10]: 23.3 µM

COc1ccc(CSc2ccccc2Cn2cccc2)cc1OC
TGI [1]: > 100 µM
TGI [2]: > 100 µM
TGI [12]: > 100 µM
TGI [4]: > 100 µM
TGI [13]: > 100 µM
TGI [5]: > 100 µM
TGI [6]: > 100 µM
TGI [8]: > 100 µM
TGI [9]: > 100 µM
TGI [15]: > 100 µM
TGI [10]: > 100 µM
TGI [11]: > 100 µM

Fc1ccccc1C1SCc2nc3cc4ccccc4cc3n21 (stereo not given)
TGI [1]: > 100 µM
TGI [2]: > 100 µM
TGI [12]: > 100 µM
TGI [3]: > 100 µM
TGI [4]: > 100 µM
TGI [13]: > 100 µM
TGI [5]: > 100 µM
TGI [6]: > 100 µM
TGI [7]: 80.1 µM
TGI [8]: > 100 µM
TGI [9]: > 100 µM
TGI [14]: > 100 µM
TGI [15]: > 100 µM
TGI [10]: > 100 µM
TGI [11]: > 100 µM
